Read-outs that look alike come from different tables or passages of the source.
Key:
[1] = biological target: T1, acetylcholinesterase (Homo sapiens, UniProt P22303)
[2] = biological target: T1, acetylcholinesterase; experiment: biochemical
[3] = biological target: human cannabinoid CB1 receptor (Homo sapiens, UniProt P21554); experiment: biochemical
Chain of human cannabinoid CB1 receptor (P21554 whole entry): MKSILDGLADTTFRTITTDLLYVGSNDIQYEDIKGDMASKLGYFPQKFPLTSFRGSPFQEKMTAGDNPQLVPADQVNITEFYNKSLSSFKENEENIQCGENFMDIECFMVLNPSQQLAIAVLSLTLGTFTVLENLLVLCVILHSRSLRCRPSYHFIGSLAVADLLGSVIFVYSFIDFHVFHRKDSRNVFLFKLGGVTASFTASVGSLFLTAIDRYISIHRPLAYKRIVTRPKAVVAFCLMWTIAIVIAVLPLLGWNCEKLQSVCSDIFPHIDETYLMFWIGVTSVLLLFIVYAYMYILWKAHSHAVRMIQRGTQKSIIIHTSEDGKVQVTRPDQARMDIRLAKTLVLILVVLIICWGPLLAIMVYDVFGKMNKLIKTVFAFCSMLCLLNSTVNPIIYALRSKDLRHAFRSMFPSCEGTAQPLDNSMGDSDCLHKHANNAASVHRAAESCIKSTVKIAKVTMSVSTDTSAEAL
Protocol: After incubation of a freshly prepared cell membrane preparation with the [^3H]-ligand, with or without addition of compounds of the invention, separation of bound and free ligand was performed by filtration over glass fiber filters. Radioactivity on the filter was measured by liquid scintillation counting.

T1 sequence (P22303 32-614): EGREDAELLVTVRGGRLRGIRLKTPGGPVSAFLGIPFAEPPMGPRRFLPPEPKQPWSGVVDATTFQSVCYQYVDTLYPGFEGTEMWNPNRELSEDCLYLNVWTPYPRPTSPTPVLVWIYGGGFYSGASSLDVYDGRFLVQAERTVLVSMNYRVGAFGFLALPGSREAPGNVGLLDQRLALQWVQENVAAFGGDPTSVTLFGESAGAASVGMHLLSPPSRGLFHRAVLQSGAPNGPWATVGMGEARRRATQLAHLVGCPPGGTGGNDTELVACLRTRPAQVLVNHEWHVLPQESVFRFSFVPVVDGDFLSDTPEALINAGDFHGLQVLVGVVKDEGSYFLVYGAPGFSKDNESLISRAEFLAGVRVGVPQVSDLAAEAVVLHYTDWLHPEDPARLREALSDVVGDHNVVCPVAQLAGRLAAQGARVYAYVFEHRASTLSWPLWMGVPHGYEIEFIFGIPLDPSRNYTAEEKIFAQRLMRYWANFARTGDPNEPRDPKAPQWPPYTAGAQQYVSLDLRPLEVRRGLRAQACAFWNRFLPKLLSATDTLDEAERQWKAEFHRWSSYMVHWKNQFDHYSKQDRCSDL

Compound | IC50 [1] [µM] | IC50 [2] [µM] | Ki [3] [µM]
Cc1c(C(=O)NN2CCCCC2)nn(-c2ccc(Cl)cc2Cl)c1-c1ccc(Cl)cc1 [rimonabant] | 25.1 | – | –
CN=C(NS(=O)(=O)c1ccc(Cl)cc1)N1C[C@H](c2ccccc2)C(c2ccc(Cl)cc2)=N1 [SLV319] | – | 6.31 | –
O=S(=O)(/N=C(/NCCCCNc1c2c(nc3ccccc13)CCCC2)N1CC(c2ccccc2)C(c2ccc(Cl)cc2)=N1)c1ccc(Cl)cc1 (stereo not shown) [compound 2, 4-chloro-N-{[3-(4-chlorophenyl)-4-phenyl-4,5-dihydro-1H-pyrazolyl]-[7-(1,2,3,4-tetrahydroacridin-9-yl-amino)butylamino]methylene}benzene sulfonamide] | 2.51 | – | 0.0398
